This assay has as its target T1, human CGT (Homo sapiens, UniProt Q16880).
T1 sequence (Q16880 21-541): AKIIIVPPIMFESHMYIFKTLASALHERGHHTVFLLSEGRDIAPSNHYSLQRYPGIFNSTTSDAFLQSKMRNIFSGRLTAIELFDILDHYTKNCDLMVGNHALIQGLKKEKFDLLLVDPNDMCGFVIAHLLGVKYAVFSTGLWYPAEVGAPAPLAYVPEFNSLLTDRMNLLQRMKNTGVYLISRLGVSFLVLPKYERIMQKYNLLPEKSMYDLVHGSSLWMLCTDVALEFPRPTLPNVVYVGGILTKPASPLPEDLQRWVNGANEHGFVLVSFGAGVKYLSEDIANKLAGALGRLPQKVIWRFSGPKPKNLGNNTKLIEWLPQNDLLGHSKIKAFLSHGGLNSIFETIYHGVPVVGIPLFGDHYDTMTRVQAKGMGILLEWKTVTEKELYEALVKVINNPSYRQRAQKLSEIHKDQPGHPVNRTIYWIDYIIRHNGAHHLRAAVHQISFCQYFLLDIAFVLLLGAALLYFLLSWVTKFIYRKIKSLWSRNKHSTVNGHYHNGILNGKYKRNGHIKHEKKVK
Description: Assay 1: CGT Enzymatic Assay (RapidFire/MS/MS, 0.01% Tween 80). Type of assay: biochemical. The settings on record: Table 1, Compounds of Formula (I) and Formula (II); CGT enzymatic assay; read-out: IC50.

Structures are written as SMILES. pIC50: −log10 of the molar value.

Usually pIC50 stands for −log10 of the IC50, conventionally taken in molar units. On to `CCCc1c(CCC)n(-c2ccc(Br)cc2)c(=O)n1-c1ccc(Br)cc1` [Example 22, 1,3-bis(4-bromophenyl)-4,5-dipropyl-1,3-dihydro-2H-imidazol-2-one], for which the pIC50 is under 4.30.

For `Cc1ccc(C2(O)CN(c3ccc(Br)cc3)C(=O)N2c2ccc(Br)cc2)cc1` (centres unmarked) [Example 23, 1,3-bis(4-bromophenyl)-4-hydroxy-4-(p-tolyl)imidazolidin-2-one], the pIC50 is under 4.30.

As to `O=C1N(c2ccc(Br)cc2)CC(O)(c2ccc3ccccc3c2)N1c1ccc(Br)cc1` (centres unmarked) [Example 24, 1,3-bis(4-bromophenyl)-4-hydroxy-4-(naphthalen-2-yl)imidazolidin-2-one], the pIC50 was under 4.30.

For `CCC1N(c2ccc(Br)cc2)C(=O)N(c2ccc(Br)cc2)C1(O)c1ccccc1` (centres unmarked) [Example 25, 1,3-bis(4-bromophenyl)-5-ethyl-4-hydroxy-4-phenylimidazolidin-2-one], the pIC50 is over 6.00.

With `CC[C@@H]1N(c2ccc(Br)cc2)C(=O)N(c2ccc(Br)cc2)C1(O)c1ccccc1` (some centres unmarked) [Example 25-1], the pIC50 is over 6.00.

Regarding `CC[C@H]1N(c2ccc(Br)cc2)C(=O)N(c2ccc(Br)cc2)C1(O)c1ccccc1` (some centres unmarked) [Example 25-2], the negative-log IC50 (pIC50) was over 6.00.

On to `OC1(c2ccccc2)CN(c2ccc(Br)cc2)C(=S)N1c1ccc(Br)cc1` (centres unmarked) [Example 26, 1,3-bis(4-bromophenyl)-4-hydroxy-4-phenylimidazolidine-2-thione], for which the pIC50 was 4.00 to 4.30.

As to `CCCc1c(C(=O)c2ccccc2)n(-c2ccc(Cl)cc2)c(=O)n1-c1ccc(Cl)cc1` [Example 27, 4-benzoyl-1,3-bis(4-chlorophenyl)-5-propyl-1,3-dihydro-2H-imidazol-2-one], the negative-log IC50 (pIC50) is 4.30 to 5.00.

On to `O=C1N(c2ccc(Br)cc2)CC(O)(c2ccccc2)N1c1ccccc1` (centres unmarked) [Example 28, 1-(4-bromophenyl)-4-hydroxy-3,4-diphenylimidazolidin-2-one], for which the pIC50 was 4.30 to 5.00.

On to `Cc1cccc(C2(O)[C@H](C)N(c3ccc(Br)cc3)C(=O)N2c2ccc(Br)cc2)c1` (some centres unmarked) [Example 29-1], for which the negative logarithm of the IC50 (pIC50) was over 6.00.

Take `Cc1cccc(C2(O)[C@@H](C)N(c3ccc(Br)cc3)C(=O)N2c2ccc(Br)cc2)c1` (some centres unmarked) [Example 29-2]: the negative logarithm of the IC50 (pIC50) was over 6.00.

Turning to `COc1cccc(C2(O)CN(c3ccc(Br)cc3)C(=O)N2c2ccc(Br)cc2)c1` (centres unmarked) [Example 30, 1,3-bis(4-bromophenyl)-4-hydroxy-4-(3-methoxyphenyl)imidazolidin-2-one], the negative-log IC50 (pIC50) was 5.00 to 6.00.

Consider `O=C1N(c2ccc(Br)cc2)CC(O)(c2cccc(C(F)(F)F)c2)N1c1ccc(Br)cc1` (centres unmarked) [Example 31, 1,3-bis(4-bromophenyl)-4-hydroxy-4-(3-(trifluoromethyl)phenyl)imidazolidin-2-one], for which the pIC50 is over 6.00.

`O=C1N(c2ccc(Cl)c(Cl)c2)CC(O)(c2ccccc2)N1c1ccc(Cl)c(Cl)c1` (centres unmarked) [Example 32, 1,3-bis(3,4-dichlorophenyl)-4-hydroxy-4-phenylimidazolidin-2-one]: the negative logarithm of the IC50 (pIC50) was 5.00 to 6.00.

For `Cc1cc(C)cc(C2(O)CN(c3ccc(Br)cc3)C(=O)N2c2ccc(Br)cc2)c1` (centres unmarked) [Example 33, 1,3-bis(4-bromophenyl)-4-(3,5-dimethylphenyl)-4-hydroxyimidazolidin-2-one], the negative-log IC50 (pIC50) was 4.30 to 5.00.

As for `Cc1cccc(C2(O)CN(c3ccc(Cl)cc3)C(=O)N2c2ccc(Cl)cc2)c1` (centres unmarked) [Example 34, 1,3-bis(4-chlorophenyl)-4-hydroxy-4-(m-tolyl)imidazolidin-2-one], the pIC50 is 5.00 to 6.00.

As for `O=C1N(c2ccc(Br)cc2)CC(O)(c2cccc(Cl)c2)N1c1ccc(Br)cc1` (centres unmarked) [Example 35, 1,3-bis(4-bromophenyl)-4-(3-chlorophenyl)-4-hydroxyimidazolidin-2-one], the negative-log IC50 (pIC50) is 5.00 to 6.00.

For the compound `Cc1cccc(C2(O)[C@H](C)N(c3ccc(Cl)cc3)C(=O)N2c2ccc(Cl)cc2)c1` (some centres unmarked) [Example 36-1], the negative logarithm of the IC50 (pIC50) is over 6.00.

Turning to `Cc1cccc(C2(O)[C@@H](C)N(c3ccc(Cl)cc3)C(=O)N2c2ccc(Cl)cc2)c1` (some centres unmarked) [Example 36-2], the negative logarithm of the IC50 (pIC50) is 5.00 to 6.00.

Consider `Cc1cccc(C2(O)C(C)N(c3ccc(Cl)cc3)C(=O)N2c2ccc(Cl)cc2)c1` (centres unmarked) [Example 36], for which the pIC50 is over 6.00.

Take `Cc1c(-c2cccc(C(C)O)c2)n(-c2ccc(Cl)cc2)c(=O)n1-c1ccc(Cl)cc1` (centres unmarked) [Example 37, 1,3-bis(4-chlorophenyl)-4-(3-(1-hydroxyethyl)phenyl)-5-methyl-1,3-dihydro-2H-imidazol-2-one]: the pIC50 was 5.00 to 6.00.

Consider `O=C1N(c2ccc(Cl)cc2)CC(O)(c2ccccc2)N1c1ccc(Br)cc1` (centres unmarked) [Example 38, 3-(4-bromophenyl)-1-(4-chlorophenyl)-4-hydroxy-4-phenylimidazolidin-2-one], for which the pIC50 was 4.30 to 5.00.

For the compound `O=C1N(c2ccc(Cl)cc2)CC(O)(c2cccc(Cl)c2)N1c1ccc(Cl)cc1` (centres unmarked) [Example 39, 4-(3-chlorophenyl)-1,3-bis(4-chlorophenyl)-4-hydroxyimidazolidin-2-one], the negative-log IC50 (pIC50) was over 6.00.

Take `CCc1c(-c2cccc(C(F)(F)F)c2)n(-c2ccc(Cl)cc2)c(=O)n1-c1ccc(Cl)cc1` [Example 40, 1,3-bis(4-chlorophenyl)-4-ethyl-5-(3-(trifluoromethyl)phenyl)-1,3-dihydro-2H-imidazol-2-one]: the negative-log IC50 (pIC50) was over 6.00.

Regarding `COCc1c(-c2cccc(C(F)(F)F)c2)n(-c2ccc(Cl)cc2)c(=O)n1-c1ccc(Cl)cc1` [Example 41, 1,3-bis(4-chlorophenyl)-4-(methoxymethyl)-5-(3-(trifluoromethyl)phenyl)-1,3-dihydro-2H-imidazol-2-one], the pIC50 is over 6.00.

As to `Cc1cc(C)cc(C2(O)[C@H](C)N(c3ccc(Br)cc3)C(=O)N2c2ccc(Br)cc2)c1` (some centres unmarked) [Example 42-1], the negative logarithm of the IC50 (pIC50) was over 6.00.

Take `Cc1cc(C)cc(C2(O)[C@@H](C)N(c3ccc(Br)cc3)C(=O)N2c2ccc(Br)cc2)c1` (some centres unmarked) [Example 42-2]: the negative logarithm of the IC50 (pIC50) was 5.00 to 6.00.

For the compound `Cc1cc(C)cc(C2(O)C(C)N(c3ccc(Br)cc3)C(=O)N2c2ccc(Br)cc2)c1` (centres unmarked) [Example 42], the pIC50 was over 6.00.

Regarding `O=C1N(c2ccc(Br)cc2)CC(O)(c2ccccc2)N1c1ccc(Cl)cc1` (centres unmarked) [Example 43, 1-(4-bromophenyl)-3-(4-chlorophenyl)-4-hydroxy-4-phenylimidazolidin-2-one], the negative logarithm of the IC50 (pIC50) was 5.00 to 6.00.

In the case of `CC(C)c1c(-c2cccc(C#N)c2)n(-c2ccc(Cl)cc2)c(=O)n1-c1ccc(Cl)cc1` [Example 44, 3-(1,3-bis(4-chlorophenyl)-5-isopropyl-2-oxo-2,3-dihydro-1H-imidazol-4-yl)benzonitrile], the negative logarithm of the IC50 (pIC50) was over 6.00.

In the case of `CCC1(O)[C@H](c2ccccc2)N(c2ccc(Br)cc2)C(=O)N1c1ccc(Br)cc1` (some centres unmarked) [Example 45-1], the negative-log IC50 (pIC50) is over 6.00.

On to `CCC1(O)[C@@H](c2ccccc2)N(c2ccc(Br)cc2)C(=O)N1c1ccc(Br)cc1` (some centres unmarked) [Example 45-2], for which the negative logarithm of the IC50 (pIC50) is 4.30 to 5.00.

In the case of `CCC1(O)C(c2ccccc2)N(c2ccc(Br)cc2)C(=O)N1c1ccc(Br)cc1` (centres unmarked) [Example 45], the negative logarithm of the IC50 (pIC50) is 5.00 to 6.00.

`CC(C)c1c(-c2cccc(C#N)c2)n(-c2ccc(Br)cc2)c(=O)n1-c1ccc(Br)cc1` [Example 46, 3-(1,3-bis(4-bromophenyl)-5-isopropyl-2-oxo-2,3-dihydro-1H-imidazol-4-yl)benzonitrile]: the negative logarithm of the IC50 (pIC50) is over 6.00.

As for `CCc1cccc(C2(O)CN(c3ccc(Br)cc3)C(=O)N2c2ccc(Br)cc2)c1` (centres unmarked) [Example 47, 1,3-bis(4-bromophenyl)-4-(3-ethylphenyl)-4-hydroxyimidazolidin-2-one], the negative logarithm of the IC50 (pIC50) was 5.00 to 6.00.

In the case of `N#Cc1cccc(-c2c(C3CC3)n(-c3ccc(Cl)cc3)c(=O)n2-c2ccc(Cl)cc2)c1` [Example 48, 3-(1,3-bis(4-chlorophenyl)-5-cyclopropyl-2-oxo-2,3-dihydro-1H-imidazol-4-yl)benzonitrile], the negative-log IC50 (pIC50) is over 6.00.

On to `C[C@@H]1N(c2ccc(Br)cc2)C(=O)N(c2ccc(Br)cc2)C1(O)c1cccs1` (some centres unmarked) [Example 49-1], for which the negative logarithm of the IC50 (pIC50) is 5.00 to 6.00.

As for `C[C@H]1N(c2ccc(Br)cc2)C(=O)N(c2ccc(Br)cc2)C1(O)c1cccs1` (some centres unmarked) [Example 49-2], the negative logarithm of the IC50 (pIC50) is 5.00 to 6.00.

In the case of `CC(C)c1c(-c2cccc(OC(F)(F)F)c2)n(-c2ccc(Cl)cc2)c(=O)n1-c1ccc(Cl)cc1` [Example 50], the pIC50 is over 6.00.

In the case of `CC[C@]1(C)C(c2cccc(OC(F)(F)F)c2)N(c2ccc(C#N)cc2)C(=O)N1c1ccc(C#N)cc1` (stereo partly drawn) [Example 51-1, 4,4′-((4R)-4-ethyl-4-methyl-2-oxo-5-(3-(trifluoromethoxy)phenyl)imidazolidine-1,3-diyl)dibenzonitrile], the pIC50 was 5.00 to 6.00.

In the case of `COc1ccc(C2(O)CN(c3ccc(Br)cc3)C(=O)N2c2ccc(Br)cc2)cn1` (centres unmarked) [Example 54, 1,3-bis(4-bromophenyl)-4-hydroxy-4-(6-methoxypyridin-3-yl)imidazolidin-2-one], the pIC50 is under 4.30.

As to `O=C1N(c2ccc(Cl)cc2)CC(O)(c2cccc(Br)c2)N1c1ccc(Cl)cc1` (centres unmarked) [Example 55, 4-(3-bromophenyl)-1,3-bis(4-chlorophenyl)-4-hydroxyimidazolidin-2-one], the negative-log IC50 (pIC50) is 5.00 to 6.00.

For the compound `CCC1(O)CN(c2ccc(Cl)cc2)C(=O)N1c1ccc(Cl)cc1` (centres unmarked) [Example 56, 1,3-bis(4-chlorophenyl)-4-ethyl-4-hydroxyimidazolidin-2-one], the negative logarithm of the IC50 (pIC50) was under 4.30.

As to `O=C1N(c2ccc(Cl)cc2Cl)CC(O)(c2ccccc2)N1c1ccc(Cl)cc1Cl` (centres unmarked) [Example 57, 1,3-bis(2,4-dichlorophenyl)-4-hydroxy-4-phenylimidazolidin-2-one], the pIC50 was under 4.30.
